Key:
[1] = test system: human female patients diagnosed as having endometriosis; assay: Phase 2b human clinical trial in endometriosis, 24-week treatment and post-treatment follow-up; type: in vivo; conditions: for Bone Mineral Density (Mean % change from baseline): spine
Description: This example describes the results of a Phase 2b human clinical trial undertaken to evaluate the efficacy of a GnRH antagonist represented by formula (VI) in a series of patients suffering from an estrogen-dependent disease. In this trial, a series of human female patients diagnosed as having endometriosis were administered the choline salt of 3-[2-fluoro-5-(2,3-difluoro-6-methoxybenzyloxy)4-methoxyphenyl]-2,4-dioxo-1,2,3,4-tetrahydrothieno [3,4d]pyrimidine-5-carboxylic acid periodically over the course of a 24-week treatment period. After 24 weeks of treatment, various patients entered a 24-week post-treatment follow-up period during which the patients were monitored for serum β17-estradiol (E2) concentration, severity of disease symptoms, and bone mineral density.
A series of n=328 human female patients having clinically-diagnosed endometriosis were randomly assigned to treatment arms in which patients were to be administered placebo or the GnRH antagonist in a once-daily amount of 50 mg/day, 100 mg/day, 75 mg/day, or 200 mg/day. Patients initially treated with placebo (plc) were administered the GnRH antagonist in an amount of 100 mg/day after 12 weeks. Also, after 12 weeks, patients that were initially administered 75 mg/day were provided a higher (100 mg/day) or lower (50 mg/day) dosage of the GnRH antagonist based on the patients' E2 levels at the 12-week point. The E2 levels for this group of patients is represented by “75 mg (TD)” in FIGS. 1-3. Patients that were administered 75 mg through the end of the treatment period are represented by “75 mg (FD)” in FIGS. 1-3.
After 24 weeks of continuous, once-daily treatment, administration of the GnRH antagonist ceased. A set of n=65 patients entered the 24-week post-treatment follow-up study. Following the 24-week treatment period, these patients were periodically monitored. The median E2 levels of patients that were administered the GnRH antagonist during the original 24-week treatment period and that subsequently entered the 24-week post-treatment follow-up study are shown in FIG. 1. FIGS. 2 and 3 show the mean change in dyspareunia and dyschezia scores for such patients over the 24-week treatment period and a 12-week portion of the post-treatment follow-up period.

[2] = test system: human female patients diagnosed as having uterine fibroids; assay: PRIMROSE 2 Phase 3 placebo-controlled trial in uterine fibroids; type: in vivo
Description: This example describes the results of two Phase 3, double-blind, randomized, placebo-controlled, multicenter, human clinical trials undertaken to evaluate the efficacy of the GnRH antagonist represented by formula (VI) in a series of patients suffering from uterine fibroids. In these trials, referred to herein as “PRIMROSE 1” and “PRIMROSE 2,” human female patients diagnosed as having uterine fibroids were periodically administered compound (VI), 3-[2-fluoro-5-(2,3-difluoro-6-methoxybenzyloxy)4-methoxyphenyl]-2,4-dioxo-1,2,3,4-tetrahydrothieno [3,4d]pyrimidine-5-carboxylic acid, in the form of a choline salt over the course of a 12-month treatment period. Patients were administered compound (VI) once daily in an amount of either 100 mg or 200 mg. Patients receiving compound (VI) in a daily amount of 200 mg also received once daily hormonal add-back therapy (ABT), which consisted of […] of β17-estradiol (E2) per day and 0.5 mg of norethindrone acetate (NETA) per day.
The PRIMROSE 1 study, conducted in the United States, enrolled 526 women. The PRIMROSE 2 study, conducted in the United States and Europe, enrolled 535 women.
Patients were randomized to one of several cohorts: (i) placebo, (ii) 100 mg/day of compound (VI), or (iii) 200 mg/day of compound (VI). Patients receiving 200 mg/day of compound (VI) also received once-daily ABT containing 1.0 mg E2 and 0.5 mg NETA.
Patients were assessed for uterine fibroid symptomology at baseline, after 24 weeks of treatment, and again after 52 weeks of treatment. […] Patients were also assessed in order to determine the number of days of uterine bleeding during their last 28-day interval prior to week 24 of treatment with placebo or compound (VI).
Pain levels were measured using a Verbal Rating Score (VRS), as described herein. Patients were also assessed to determine the proportion that reported an improvement in quality of life using the Uterine Fibroids Symptoms and Health-Related Quality of Life questionnaire.
To evaluate the safety of compound (VI), patients' bone mineral density levels were measured at baseline and at various timepoints during the studies.

human GnRH receptor = target: T1, human GnRH receptor (Homo sapiens, UniProt P30968); assay: affinity for human GnRH receptor; type: binding; conditions: compound (VI) as well as its salts such as the choline salt; kind of constant not stated
T1 sequence (P30968 1-328): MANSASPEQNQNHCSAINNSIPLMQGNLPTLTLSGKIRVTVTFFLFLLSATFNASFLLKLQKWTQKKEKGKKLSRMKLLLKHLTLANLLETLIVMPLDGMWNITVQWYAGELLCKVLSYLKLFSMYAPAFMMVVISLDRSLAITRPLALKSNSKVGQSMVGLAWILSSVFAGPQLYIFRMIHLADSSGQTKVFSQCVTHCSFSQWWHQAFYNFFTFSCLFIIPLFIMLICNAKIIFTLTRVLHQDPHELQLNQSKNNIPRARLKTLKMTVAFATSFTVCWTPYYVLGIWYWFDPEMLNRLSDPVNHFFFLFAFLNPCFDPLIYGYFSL

## COc1cc(F)c(-n2c(=O)[nH]c3csc(C(=O)O)c3c2=O)cc1OCc1c(OC)ccc(F)c1F [Compound (VI), 3-[2-fluoro-5-(2,3-difluoro-6-methoxybenzyloxy)4-methoxyphenyl]-2,4-dioxo-1,2,3,4-tetrahydrothieno [3,4d]pyrimidine-5-carboxylic acid]
[1]; 75 mg once daily (choline salt), after 24 weeks of treatment, n = 48
  Overall Pelvic Pain Responder Rate (VRS score reduction of > 30% from baseline): 70.8%
[1]; 75 mg once daily for 24 weeks, 12 weeks after cessation of treatment, n = 7
  Overall Pelvic Pain Responder Rate (VRS score reduction of > 30% from baseline): 87.5%
[1]; 200 mg once daily (choline salt), after 24 weeks of treatment, n = 44
  Overall Pelvic Pain Responder Rate (VRS score reduction of > 30% from baseline): 77.3%
[1]; 200 mg once daily for 24 weeks, 12 weeks after cessation of treatment, n = 10
  Overall Pelvic Pain Responder Rate (VRS score reduction of > 30% from baseline): 70.0%
[1]; after cessation of 24-week once-daily treatment, 12-week portion of follow-up, FIG. 2
  dyspareunia, Verbal Rating Score (VRS): sustained reduction
[1]; after cessation of 24-week once-daily treatment, 12-week portion of follow-up, FIG. 3
  dyschezia, Numerical Rating Score (NRS): sustained reduction
[1]; 75 mg once daily for 24 weeks, 12 weeks after cessation of treatment
  Bone Mineral Density (Mean % change from baseline): +0.313%
[1]; 75 mg once daily, after 24 weeks of treatment
  Bone Mineral Density (Mean % change from baseline): −0.798%
[1]; 200 mg once daily for 24 weeks, 12 weeks after cessation of treatment
  Bone Mineral Density (Mean % change from baseline): +1.135%
[1]; 200 mg once daily, after 24 weeks of treatment
  Bone Mineral Density (Mean % change from baseline): −2.602%
[2]; 100 mg/day
  p value: Improvement in quality of life, Change from baseline in quality of life (QoL) symptom severity score (LS mean): p = 0.004
[2]; 200 mg/day + once-daily ABT
  p value: Improvement in quality of life, Change from baseline in quality of life (QoL) symptom severity score (LS mean): p < 0.001
[2]; 52 weeks, 100 mg per day without ABT
  proportion of patients with menstrual blood loss to a level of 80 mL and a 50% reduction from baseline: 53.2%
[2]; 52 weeks, 200 mg per day + ABT
  proportion of patients with menstrual blood loss ≤80 mL and ≥50% reduction from baseline: 91.6%
[2]; once-daily treatment, 24 and 52 weeks, FIG. 9
  bone mineral density, lumbar spine: does not induce a substantial decrease in bone mineral density
Human GnRH receptor
  affinity for human GnRH receptor: 27.4 nM

— patent US20220305017A1, “COMPOSITIONS AND METHODS FOR THE TREATMENT OF ESTROGEN-DEPENDENT DISORDERS” (ObsEva S.A., priority 2019, published 2022)
